Test results taken from patent US12156918B2, “Neuroendocrine cancer targeted therapy” (THE UAB RESEARCH FOUNDATION, priority 2018, dated 2024).
Where a SMILES comes first, the peptide text is derived from it. [ ]: non-standard residue; d: D form. The star is where a group is joined. Dolaproine = CO[C@@H]([C@@H]1CCCN1)[C@@H](C)C(=O)O; Dil = CC[C@H](C)[C@H](NC)[C@@H](CC(=O)O)OC; X1 = C[C@@H](N*)[C@@H](O)c1ccccc1; NMeV = CN[C@H](C(=O)O)C(C)C

Assays:
BON-1 cells = assay: In vitro anti-cancer toxicity (IC50), Luminescent Cell Viability Assay; format: cell-based, human; conditions: 3-day incubation
Protocol: In vitro anti-cancer toxicity (IC50). BON cell line was utilized to compare the toxicity of ADC. 75 uL of culture media containing cells (viability >95%) with a density of 5×10^4 cells/mL was added in each well of 96-well plate. ADC or MMAE solution was sterilized by 0.2 μm filter and diluted to different concentrations with complete medium. After 4-hr incubation in regular cell culture incubator, 75 μL of ADC or MMAE with gradient concentrations were mixed with cells in the 96-well plate. The well plate was covered by another 96-well plate filled with PBS to prevent medium evaporation during treatment period. After 3-day incubation, the toxicity result was generated through Luminescent Cell Viability Assay (Promega, Madison, […]).

microtubule = assay: Microtubule de-polymerization imaging; format: cell-based, human; conditions: BON cell line
human CD8+ T cells = assay: Flow cytometry of cytokine expression in CD3/CD28 stimulated T cells; format: cell-based; conditions: 2 days incubation (100 nM elsewhere in the source)
Protocol: Therefore, our novel anti-SSTR2 mAb has great potential as a drug delivery vehicle in the form of ADC. […] Using flow cytometry, we analyze the effect of our SSTR2 mAb on the expression of cytokines in the CD3/CD28 stimulated human CD8+ T cells after incubating with mAb for 2 days.
Moreover, the possible effect of the disclosed anti-SSTR2 mAb on cytokine production in CD8^+ T cells was also tested. Post CD3/CD28 stimulation, human CD8^+ T cells were incubated with either 100 nM of SST analog (Octreotide) or 100 nM of the anti-SSTR2 mAb for 2 days. After incubation, flow cytometry was performed to analyze the expression of IL-2 and IFN-γ.

Compound | IC50 (BON-1 cells) [nM] | mechanism of NET cell proliferation inhibition (microtubule) | increase of IFN-γ expression (human CD8+ T cells) [folds] | increase of IL-2 expression (human CD8+ T cells) [folds]
CC[C@H](C)[C@@H]([C@@H](CC(=O)N1CCC[C@H]1[C@H](OC)[C@@H](C)C(=O)N[C@H](C)[C@@H](O)c1ccccc1)OC)N(C)C(=O)[C@@H](NC(=O)[C@@H](NC)C(C)C)C(C)C [MMAE, monomethyl auristatin E] (H-[NMeV]V[Dil][Dolaproine]-X1) | 2 | microtubule de-polymerization |  | 
C[C@@H](O)[C@@H]1NC(=O)[C@H](CCCCN)NC(=O)[C@@H](Cc2c[nH]c3ccccc23)NC(=O)[C@H](Cc2ccccc2)NC(=O)[C@@H](NC(=O)[C@H](N)Cc2ccccc2)CSSC[C@@H](C(=O)N[C@H](CO)[C@@H](C)O)NC1=O [Octreotide] |  |  | 2.2 | 1.6
